Data on 16 compounds can be found in ChEMBL document CHEMBL1201862, “PubChem BioAssay data set” (2004).

For one experiment, the target named is T1, Protein skinhead-1 (Caenorhabditis elegans, UniProt P34707).
T1 sequence (P34707 whole entry): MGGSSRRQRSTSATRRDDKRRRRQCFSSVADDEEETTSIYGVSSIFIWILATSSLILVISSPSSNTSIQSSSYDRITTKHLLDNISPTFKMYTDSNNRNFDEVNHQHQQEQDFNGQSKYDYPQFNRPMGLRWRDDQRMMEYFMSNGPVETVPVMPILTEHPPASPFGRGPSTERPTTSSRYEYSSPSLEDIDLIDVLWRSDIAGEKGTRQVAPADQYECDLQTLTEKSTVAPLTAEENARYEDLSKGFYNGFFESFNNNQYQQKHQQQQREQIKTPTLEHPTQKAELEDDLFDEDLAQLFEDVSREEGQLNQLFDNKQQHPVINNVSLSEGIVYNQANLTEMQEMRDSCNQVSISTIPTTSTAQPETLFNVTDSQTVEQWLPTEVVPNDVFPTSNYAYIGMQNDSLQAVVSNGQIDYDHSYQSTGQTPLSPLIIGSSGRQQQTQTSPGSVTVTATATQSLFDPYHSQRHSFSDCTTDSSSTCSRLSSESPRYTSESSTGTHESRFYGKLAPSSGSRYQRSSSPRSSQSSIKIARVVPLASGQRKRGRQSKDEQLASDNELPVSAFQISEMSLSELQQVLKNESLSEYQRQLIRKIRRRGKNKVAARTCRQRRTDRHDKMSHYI
The format is functional.

The nature of experiment [1]: cells. The format is functional, cell-based.
Experiment [2] can be described thus: cells. Format: functional, cell-based. This is another data set of the same source.
For experiment [3], the target named is T2, Trace amine-associated receptor 1 (Homo sapiens, UniProt Q96RJ0).
T2 sequence (Q96RJ0 whole entry): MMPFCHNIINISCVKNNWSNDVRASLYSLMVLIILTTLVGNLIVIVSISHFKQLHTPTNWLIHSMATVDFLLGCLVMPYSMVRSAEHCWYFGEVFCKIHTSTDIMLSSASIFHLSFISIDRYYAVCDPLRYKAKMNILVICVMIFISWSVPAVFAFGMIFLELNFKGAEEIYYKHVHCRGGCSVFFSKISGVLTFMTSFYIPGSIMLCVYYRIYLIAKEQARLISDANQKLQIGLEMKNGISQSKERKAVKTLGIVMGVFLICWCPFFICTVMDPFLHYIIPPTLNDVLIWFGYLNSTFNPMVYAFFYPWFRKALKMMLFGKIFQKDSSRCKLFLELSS
As to the kind of experiment: Counterscreen for agonists of the human trace amine associated receptor 1 (hTAAR1): Fluorescence-based cell-based high throughput dose response assay to identify hTAAR1 agonist that also desensitize TAAR1 receptor response. The format is functional.

Experiment [4] deals with T2, Trace amine-associated receptor 1. As to the kind of experiment: Fluorescence-based cell-based high throughput dose response assay to identify agonists of the human trace amine associated receptor 1 (TAAR1). Format: functional.
A short description of experiment [5]: Luminescence Cell-Based Dose Retest to Confirm Inhibitors of Cancer Stem Cells. [Related pubchem assays (depositor defined):AID2717, AID2721]. Format: functional. To be noted: Homo sapiens.
Experiment [6] is described as follows: growth suppression of beta-catenin-knockout colon cells, dose response, cell-based, HCT116, human colon tumor (AID 1045).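 Note: HCT116 colon tumor cells with beta catenin knocked out; cells exposed to compound for 60 hours.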 Format: functional.
The nature of experiment [7]: growth suppression of PTEN-null colon cells, dose response, cell-based, HCT116 PTEN knockout (AID 1047).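 Note: HCT116 colon tumor cells with PTEN knocked out; cells exposed to compound for 60 hours before readout; potency for loss of cell viability measured by luminescence.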 The format is functional.
Experiment [8] concerns the target T3, RNA-binding protein pos-1 (Caenorhabditis elegans, UniProt G5EF15).
T3 sequence (G5EF15 whole entry): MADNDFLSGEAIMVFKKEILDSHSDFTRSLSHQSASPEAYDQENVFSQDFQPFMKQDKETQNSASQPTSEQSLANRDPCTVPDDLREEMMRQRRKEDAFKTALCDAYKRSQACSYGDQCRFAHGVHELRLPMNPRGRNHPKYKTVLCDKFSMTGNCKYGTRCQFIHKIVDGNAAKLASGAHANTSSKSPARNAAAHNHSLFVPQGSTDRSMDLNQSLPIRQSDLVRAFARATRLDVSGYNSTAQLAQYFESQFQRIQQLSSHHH
Briefly: inhibitors of POS-1/mex-3 RNA binding, dose response, biochemical, fluorescence polarization (AID 1964).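 Note: purified POS-1 fused to maltose binding protein made in E. coli; potency of compounds blocking POS-1 binding to fluorescent RNA.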 For orientation: Fluorescence polarisation rises when a labelled molecule tumbles more slowly, as on binding a larger partner.

The target in experiment [9] is T4, Zinc finger protein mex-5 (Caenorhabditis elegans, UniProt Q9XUB2).
T4 sequence (Q9XUB2 whole entry): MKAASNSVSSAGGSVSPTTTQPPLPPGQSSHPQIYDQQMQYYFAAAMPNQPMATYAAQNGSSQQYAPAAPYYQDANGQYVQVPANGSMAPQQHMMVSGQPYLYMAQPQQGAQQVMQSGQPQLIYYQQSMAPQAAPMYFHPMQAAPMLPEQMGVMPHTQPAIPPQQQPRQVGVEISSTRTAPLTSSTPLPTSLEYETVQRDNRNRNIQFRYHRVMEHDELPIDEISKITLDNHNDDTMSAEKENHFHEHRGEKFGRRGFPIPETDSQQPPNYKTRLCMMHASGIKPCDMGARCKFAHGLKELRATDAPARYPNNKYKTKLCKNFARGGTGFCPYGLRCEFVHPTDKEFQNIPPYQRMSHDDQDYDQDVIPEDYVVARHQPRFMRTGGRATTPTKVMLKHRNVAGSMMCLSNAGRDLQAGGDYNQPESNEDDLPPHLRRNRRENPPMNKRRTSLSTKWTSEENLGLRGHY
Briefly: MEX-5/TCR-2 RNA interaction inhibitors, dose response, biochemical, C. elegans, fluorescence polarization (AID 1960).

Experiment [10] can be described thus: off-target signal loss in HeLa-CEM21 co-culture – HeLa F-luc CTL cells, cherry-picked, counter-screen for HIV-1 Env fusion inhibitor project, dose response (AID 652040).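 Note: potency for signal decrease marking cytotoxic or nonspecific inhibition.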 The format is functional, cell-based. On the technique in general: A counterscreen serves to expose hits that act by an unwanted route or on another target.
Experiment [11] can be described thus: inhibitors of clade B AD8 Env fusion, dose response, cell-based, cherry-pick (AID 652062).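 Note: luciferase signal from cell-cell fusion driven by HIV-1 clade B AD8 Env; potency is for inhibitors of fusion seen as a drop in luminescence.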 Format: functional.
Experiment [12] has as its target T5, Mannose-6-phosphate isomerase (Homo sapiens, UniProt P34949).
T5 sequence (P34949 whole entry): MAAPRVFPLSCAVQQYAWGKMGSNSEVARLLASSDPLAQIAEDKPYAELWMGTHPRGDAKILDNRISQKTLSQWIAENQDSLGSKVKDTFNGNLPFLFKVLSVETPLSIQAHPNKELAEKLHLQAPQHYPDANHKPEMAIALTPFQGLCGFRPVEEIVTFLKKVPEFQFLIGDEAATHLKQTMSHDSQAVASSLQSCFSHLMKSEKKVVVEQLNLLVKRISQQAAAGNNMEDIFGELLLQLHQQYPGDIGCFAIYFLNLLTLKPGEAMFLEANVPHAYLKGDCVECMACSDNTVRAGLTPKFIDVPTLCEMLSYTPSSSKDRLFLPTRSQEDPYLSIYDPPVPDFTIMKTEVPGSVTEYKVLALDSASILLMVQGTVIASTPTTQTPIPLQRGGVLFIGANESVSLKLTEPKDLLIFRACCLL
Briefly: human PMI inhibitors, high substrate, primary screen, biochemical, fluorescence intensity, high mannose 6-phosphate (AID 1220).

Experiment [13] can be described thus: LGR2 antagonists, dose response, cell-based, HEK293, CRE-luciferase reporter, cherry pick, set 2 (AID 743343).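 Note: transfected cells were stimulated with diluted bursicon conditioned medium after compound addition.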 Format: functional. For orientation: Reporter assays use an easily measured gene product as a stand-in for the process of interest.
Experiment [14] is described as follows: MC4R antagonists, dose response, counter-screen for LGR2 antagonist project, cell-based, plate reader, cherry pick (AID 743444).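 Note: transfected HEK 293 cells stimulated with alpha-MSH peptide; potency of inhibitors of the alpha-MSH evoked signal.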 The format is functional.
Experiment [15] is described as follows: inhibitors of HIV Env-driven cell fusion, dose response, cherry-pick (AID 652057). The format is functional, cell-based.

The source made the active and inactive calls.

The term IC50 denotes the concentration that gives 50% inhibition. Turning to `c1ccc(-c2csc(-c3cccnc3)n2)cc1`, the IC50 on Protein skinhead-1 is 40.4 µM (active).

What is called EC50 is the concentration at which the effect is half-maximal. As a reminder, the AC50 is the concentration giving half of the maximal activity seen. With `Cc1cccc(-c2cc3nc(C)cc(N4CC(C)CC(C)C4)n3n2)c1` (configuration not stated), the EC50 in “cells [1]” is > 29.9 µM (inactive); in experiment [4], 7.1 µM (active); in experiment [6] it was 43.9 µM (active); in [7], 27.8 µM (active). In addition, the IC50 (in the experiment “cells [2]”; in experiment [3]) was > 29.9 µM (inactive) in each case. Further, in experiment [5], the AC50 was 5.01 µM (active).

For the compound `CCCn1c(O)c(C#N)c(C)c(CN2CCCC(C)C2)c1=O` (configuration not stated), the EC50 was > 29.9 µM (inactive) in the experiment “cells [1]”, > 300 µM (inconclusive) in [8], 3.04 µM (active) in experiment [4] and 6.59 µM (active) in [9]. The IC50 in the experiment “cells [2]” is > 29.9 µM (inactive); in [3], 13 µM (inactive).

As for `Cn1c(=O)oc2cc(S(=O)(=O)NCc3ccncc3)ccc21`, the AC50 in experiment [10] was 58.5 µM (active); in experiment [11], 17.4 µM (active).

On to `Cc1nc(NCCc2ccccc2)c2nnn(Cc3ccccc3Cl)c2n1`, for which the EC50 in “cells [1]” was > 29.9 µM (inactive); in [4], 0.59 µM (active). The values for the IC50 (in the experiment “cells [2]”; in experiment [3]) were > 29.9 µM (inactive) and 3.51 µM (active), respectively.

For the compound `NC(=O)C1CCN(c2oc(-c3ccccc3F)nc2S(=O)(=O)c2ccc(Cl)cc2)CC1`, the IC50 at Protein skinhead-1 is > 100 µM (inactive).

Turning to `O=C(Nc1ccc2oc(-c3ccccc3)nc2c1)c1cccnc1`, the IC50 on Protein skinhead-1 is > 100 µM (inactive).

`COC(=O)C1=C(C(=O)OC)SC(=C2C(=S)C(C)(C)N(C(=O)C(C)C)c3ccccc32)S1`: the IC50 in experiment [12] is 7.38 µM (active).

With `Cc1ccc(-c2cc(C(=O)N3CCOCC3)no2)cc1`, the AC50 in experiment [13] is 2.95 µM (active); in experiment [14], 2.81 µM (active).

Turning to `O=C(NCCc1ccccc1)c1ccc(CS(=O)(=O)Cc2ccccc2F)o1`, the results for the EC50 (in the experiment “cells [1]”; in [4]) were > 29.9 µM (inactive) and 2.78 µM (active), respectively. Further, the IC50 in the experiment “cells [2]” was 17.7 µM (inactive); in experiment [3], 5.69 µM (active).

In the case of `C=CCn1c(SCC(=O)c2c(N)n(C)c(=O)n(C)c2=O)nnc1-c1ccoc1C`, the IC50 at Protein skinhead-1 was > 100 µM (inactive).

On to `Cc1cccc(NC2=NCC(=O)N2CCc2ccccc2)c1`, for which the EC50 in “cells [1]” is > 29.9 µM (inactive); in [4], 0.866 µM (active). Further, the IC50 in the experiment “cells [2]” is > 29.9 µM (inactive); in [3], 7.06 µM (active).

`C=CCSc1nnc2c(n1)-c1cccc3cccc-2c13`: on Protein skinhead-1, the concentration for half-maximal inhibition (IC50) was 18.2 µM (active).

With `NC(Cc1ccc(F)cc1)c1csc(Nc2ccc(S(N)(=O)=O)cc2)n1` (configuration not stated), the results for the EC50 (in “cells [1]”; in experiment [4]) were > 29.9 µM (inactive) and 5.18 µM (active), respectively. The IC50 (in “cells [2]”; in [3]) was > 29.9 µM (inactive) throughout.

For the compound `COc1cccc(S(=O)(=O)N(C)C[C@@H]2Oc3cc(C#CCC(C)C)ccc3S(=O)(=O)N([C@H](C)CO)C[C@@H]2C)c1`, the AC50 is 20.1 µM (active) in [15] and 17.9 µM (active) in experiment [11].

On to `COc1ccc(O)c(/C=N/c2sc(C)c(C)c2C#N)c1`, for which the IC50 in experiment [12] is reported as > 50 µM (not active).
